Assay results reported in patent US11319324B2, “Pyrazolo-pyrrolo-pyrimidine-dione derivatives as P2X3 inhibitors” (Bayer Aktiengesellschaft, priority 2017, dated 2022).

Experiments:
Type in all cases: cell-based
[1] = target: T1, human P2X3 receptor (Homo sapiens, UniProt P56373); experiment: Intracellular calcium measurement to assess antagonist activity at human P2X3 receptors (hP2X3 CHO), photina luminescence; parameters: expressed in transfected cells; host or cells: Chinese hamster ovary (CHO) cells; settings: column 2), CHO cells, agonist α,β-methylene-ATP at EC50
T1 sequence (P56373 1-397): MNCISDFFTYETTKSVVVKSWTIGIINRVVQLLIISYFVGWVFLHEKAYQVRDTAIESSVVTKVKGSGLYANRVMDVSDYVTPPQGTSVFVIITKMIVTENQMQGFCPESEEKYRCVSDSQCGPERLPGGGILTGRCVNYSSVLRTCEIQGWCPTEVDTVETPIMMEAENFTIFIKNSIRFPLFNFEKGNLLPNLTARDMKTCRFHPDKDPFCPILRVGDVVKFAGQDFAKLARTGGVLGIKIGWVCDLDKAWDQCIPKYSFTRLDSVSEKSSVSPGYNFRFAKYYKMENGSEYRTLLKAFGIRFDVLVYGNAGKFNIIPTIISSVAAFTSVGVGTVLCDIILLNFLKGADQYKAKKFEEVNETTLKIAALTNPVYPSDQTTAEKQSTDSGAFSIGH
In short: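 Antagonism read as lowered photina luminescence after agonist stimulation in recombinant hP2X3/photina CHO cells. Cells seeded one day earlier (30 °C) and reconstituted with 5 μg/ml coelenterazine in 2 mM Ca-tyrode buffer for 3 h at 37 °C before measurement.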

[2] = target: T2, human P2X2/3 receptors (Homo sapiens, UniProt P56373+Q9UBL9); experiment: Intracellular calcium measurement, antagonist activity at human P2X2/3 receptors (hP2X23 1321N1), Fluo8; settings: for IC50: column 4); 1321N1 cells, human P2X2/3, Fluo8, agonist ATP at EC50; read-out: 4) hP2X2/3 IC50 [nM] (1321N1); for hP2X23/hP2X3* Selectivity (1321N1): ratio of column 4) hP2X2/3 to column 3) hP2X3, 1321N1
T2 construct: expressed in transfected cells; host or cells: human astrocytoma 1321N1 (1312N1 [sic])
T2 sequence (P56373 1-397): T1 sequence (P56373 1-397)
T2 sequence (Q9UBL9 1-471): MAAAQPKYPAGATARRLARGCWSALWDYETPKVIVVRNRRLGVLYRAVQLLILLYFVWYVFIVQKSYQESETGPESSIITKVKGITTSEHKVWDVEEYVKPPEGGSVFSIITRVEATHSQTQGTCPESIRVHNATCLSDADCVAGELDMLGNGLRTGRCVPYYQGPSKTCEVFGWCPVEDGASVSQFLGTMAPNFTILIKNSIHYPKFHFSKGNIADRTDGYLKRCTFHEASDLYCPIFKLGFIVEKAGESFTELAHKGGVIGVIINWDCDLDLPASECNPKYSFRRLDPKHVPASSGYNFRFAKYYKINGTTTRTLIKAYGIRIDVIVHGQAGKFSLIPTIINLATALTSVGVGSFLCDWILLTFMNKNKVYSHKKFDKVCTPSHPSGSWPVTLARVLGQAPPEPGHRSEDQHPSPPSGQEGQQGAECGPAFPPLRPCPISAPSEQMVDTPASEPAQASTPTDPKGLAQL
In short: (§1)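 Antagonism was assessed by decrease of the Fluo8 calcium signal after ATP challenge, with ATP dosed at the EC50 of whichever receptor was tested. Stable 1321N1 astrocytoma lines expressed either human P2X3 or both P2X2 and P2X3, and were dye-loaded 60 min before a 10 min compound incubation.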

[3] = target: T1, human P2X3 receptor; experiment: Intracellular calcium measurement, antagonist activity at human P2X3 receptors (hP2X3 1321N1), Fluo8; parameters: expressed in transfected cells; host or cells: human astrocytoma 1321N1 (1312N1 [sic]); settings: column 3); 1321N1 cells, human P2X3, Fluo8, agonist ATP at EC50
In short: as §1

[4] = target: T1, human P2X3 receptor; experiment: Intracellular calcium measurement to assess antagonist activity at human P2X3 receptors (hP2X3 FLIPR); parameters: expressed in transfected cells; host or cells: human astrocytoma 1321N1 (1312N1 [sic]); settings: head prints (1321N1); read-out: 1) hP2X3 IC50 [nM] (1321N1)
Description: 1) Intracellular Calcium Measurement to Assess Antagonist Activity at Human P2X3 Receptors (hP2X3 FLIPR)
A fluorescent imaging plate reader (FLEX/FLIPR station; Molecular Devices) was used to monitor intracellular calcium levels using the calcium-chelating dye Fluo-4 (Molecular Probes). The excitation and emission wavelengths used to monitor fluorescence were 470-495 nm and 515-575 nm, respectively. The human astrocytoma […] cells expressing purinergic receptors P2X3 (human) were plated at a density of 15,000 cells/well in collagen—coated 384-well plates approximately 20 hours before beginning the assay. […] The dye supernatant was removed and replaced with 45 μl probenecid buffer (Hank's balanced salt solution, 20 mM HEPES, 0.5 mM CaCl2, 0.5 mM MgCl2, 0.1% BSA, 5 mM probenecid, 10 mM D-glucose monohydrate, pH=7.4). The test compounds were added in a volume of 5 μl and allowed to incubate for 30 min at 37° C. The final assay DMSO concentration is 1%. […] The fluorescence was measured for an interval of 90 sec at 2 sec intervals and analyzed based on the increase in peak relative fluorescence units (RFU) compared to the basal fluorescence. Peak fluorescence was used to determine the response to agonist obtained at each concentration of test compound by the following equation: Response=100*(RFU(test compound)−RFU(control))/(RFU(DMSO)−RFU(control))
The Examples were tested in triplicates per plate and mean values were plotted in Excel XLFit to determine IC50 values at the human P2X3 and human P2X2/3 receptors, percentage of maximal inhibition and the Hill coefficients.

SMILES	IC50 [1] [nM]	IC50 [2] [nM]	hP2X23/hP2X3* Selectivity (1321N1) [2]	IC50 [3] [nM]	IC50 [4] [nM]
COC[C@H](C)N1Cc2c(n(CC(=O)Nc3ccc(F)cn3)c3cc(C4CCOCC4)nn3c2=O)C1=O [Example 40]	26	> 23500	>758	31	20
COCCN1Cc2c(n(CC(=O)Nc3ccc(F)cn3)c3cc(C(C)(C)C)nn3c2=O)C1=O [Example 49]	62	3900	119	33	23
Cc1cc2n(CC(=O)Nc3ccc(F)cn3)c3c(c(=O)n2n1)CN(C(C)C)C3=O [Example 23]	64	> 20600	>11134	153	80
CC[C@@H](C)N1Cc2c(n(CC(=O)Nc3ccc(C)cn3)c3cc(C(F)(F)F)nn3c2=O)C1=O [Example 16]	320	> 100000	>6	> 16600	100
CC(C)(C)c1cc2n(CC(=O)Nc3ccc(F)cn3)c3c(c(=O)n2n1)CN(C1CCC1)C3=O [Example 17]	72	> 18100	>345	53	31
CC(C)N1Cc2c(n(CC(=O)Nc3ccc(Cl)cn3)c3cc(C(F)(F)F)nn3c2=O)C1=O [Example 29]	41	4150	115	36	62
CC[C@H](C)N1Cc2c(n(CC(=O)Nc3ccc(F)cn3)c3cc(C)nn3c2=O)C1=O [Example 53]	195	> 22000	>110	200	133
CC(C)N1Cc2c(n(CC(=O)Nc3ccccn3)c3cc(C(C)(C)C)nn3c2=O)C1=O [Example 2]	135	> 22000	>119	185	219
CC(C)c1cc2n(CC(=O)Nc3ccc(F)cn3)c3c(c(=O)n2n1)CN(CC(C)(C)O)C3=O [Example 51]	160	11500	46	253	311

Other lines, results leading:

IC50 [1] [nM]	IC50 [2] [nM]	hP2X23/hP2X3* Selectivity (1321N1) [2]	IC50 [3] [nM]	IC50 [4] [nM]	SMILES
750	> 20600	>31	657	376	Cc1ccc(NC(=O)Cn2c3c(c(=O)n4nc(C(C)(C)C)cc24)CN([C@@H](C)C(C)C)C3=O)nc1 [Example 11]
20	5650	353	16	12	COC[C@H](C)N1Cc2c(n(CC(=O)Nc3ccc(F)cn3)c3cc(C(C)(C)C)nn3c2=O)C1=O [Example 35]
49	4650	88	53	21	CC[C@@H](C)N1Cc2c(n(CC(=O)Nc3ccc(Cl)cn3)c3cc(C(F)(F)F)nn3c2=O)C1=O [Example 15]
39	8200	241	34	16	COC[C@@H](C)N1Cc2c(n(CC(=O)Nc3ccc(F)cn3)c3cc(C(C)C)nn3c2=O)C1=O [Example 44]
51	5650	212	27	21	CC(C)(C)c1cc2n(CC(=O)Nc3ccc(F)cn3)c3c(c(=O)n2n1)CN(CC1CC1)C3=O [Example 13]
43	> 23000	>324	71	52	COC[C@@H](C)N1Cc2c(n(CC(=O)Nc3ccc(F)cn3)c3cc(C)nn3c2=O)C1=O [Example 52]
155	> 32000	>122	263	215	C[C@H](O)CN1Cc2c(n(CC(=O)Nc3ccc(F)cn3)c3cc(C(C)(C)C)nn3c2=O)C1=O [Example 54]
